Reference: ChEMBL document CHEMBL3885861, “Open TG-GATES”

Species: Rattus norvegicus
Assay: Open TG-GATES - Regimen: Single
Format: toxicity, organism-based, Sprague-Dawley
Parameters: regimen Single, gender Male, age 6 weeks
Details: in vivo, po, 30 mg/kg, route gavage, dose level Low; for APTT / Bas / Eos / Fbg / Hb / Ht / Lym / MCH / MCHC / MCV / Mono / Neu / PT / Plat / RBC / Ret / WBC: tissue Blood; for KIDNEY_L / KIDNEY_R / KIDNEY_TOTAL: tissue Kidney; for LIVER: tissue Liver; for A/G / ALP / ALT / AST / BUN / CRE / Ca / Cl / DBIL / GLC / IP / K / LDH / Na / PL / RALB / TBIL / TC / TG / TP / gamma-GTP: tissue Plasma

CCCNC(=O)NS(=O)(=O)c1ccc(Cl)cc1 [CHLORPROPAMIDE]
TERMINAL_BW (3 h): 200 g
APTT (3 h): 16.8 s
Bas (3 h): 0.4%
Eos (3 h): 0.8%
Fbg (3 h): 301.8 mg/dL
Hb (3 h): 13.1 g/dL
Ht (3 h): 40%
Lym (3 h): 76.8%
MCH (3 h): 20.9 pg
MCHC (3 h): 32.7%
MCV (3 h): 64 fL
Mono (3 h): 3.6%
Neu (3 h): 17.8%
PT (3 h): 15.6 s
Plat (3 h): 122.9 x10_4/uL
RBC (3 h): 625.4 x10_4/ul
Ret (3 h): 9.8%
WBC (3 h): 80.3 x10_2/uL
KIDNEY_L (3 h): 0.9 g
KIDNEY_R (3 h): 0.9 g
KIDNEY_TOTAL (3 h): 1.8 g
LIVER (3 h): 8.7 g
A/G (3 h): 0.9
ALP (3 h): 1308.8 IU/L
ALT (3 h): 44 IU/L
AST (3 h): 74.4 IU/L
BUN (3 h): 10.6 mg/dL
CRE (3 h): 0.2 mg/dL
Ca (3 h): 10.8 mg/dL
Cl (3 h): 106.2 meq/L
DBIL (3 h): 0.008 mg/dL
GLC (3 h): 154.4 mg/dL
IP (3 h): 9.5 mg/dL
K (3 h): 4 meq/L
LDH (3 h): 83.6 IU/L
Na (3 h): 143 meq/L
PL (3 h): 131.4 mg/dL
RALB (3 h): 2.5 g/dL
TBIL (3 h): 0.038 mg/dL
TC (3 h): 74.2 mg/dL
TG (3 h): 47.2 mg/dL
TP (3 h): 5.4 g/dL
gamma-GTP (3 h): 1.2 IU/L
TERMINAL_BW (6 h): 197.5 g
APTT (6 h): 17.5 s
Bas (6 h): 0.2%
Eos (6 h): 1%
Fbg (6 h): 277.8 mg/dL
Hb (6 h): 13.3 g/dL
Ht (6 h): 40.8%
Lym (6 h): 74.4%
MCH (6 h): 21 pg
MCHC (6 h): 32.7%
MCV (6 h): 64.3 fL
Mono (6 h): 2.8%
Neu (6 h): 20.4%
PT (6 h): 15.4 s
Plat (6 h): 114.9 x10_4/uL
RBC (6 h): 633.4 x10_4/ul
Ret (6 h): 9.6%
WBC (6 h): 80.6 x10_2/uL
KIDNEY_L (6 h): 0.9 g
KIDNEY_R (6 h): 0.9 g
KIDNEY_TOTAL (6 h): 1.8 g
LIVER (6 h): 8.1 g
A/G (6 h): 0.9
ALP (6 h): 1395.6 IU/L
ALT (6 h): 41 IU/L
AST (6 h): 75.4 IU/L
BUN (6 h): 9 mg/dL
CRE (6 h): 0.2 mg/dL
Ca (6 h): 10.5 mg/dL
Cl (6 h): 106.8 meq/L
DBIL (6 h): 0.004 mg/dL
GLC (6 h): 150.8 mg/dL
IP (6 h): 9.4 mg/dL
K (6 h): 4.2 meq/L
LDH (6 h): 72.6 IU/L
Na (6 h): 143 meq/L
PL (6 h): 123.6 mg/dL
RALB (6 h): 2.5 g/dL
TBIL (6 h): 0.036 mg/dL
TC (6 h): 74.2 mg/dL
TG (6 h): 35.4 mg/dL
TP (6 h): 5.2 g/dL
gamma-GTP (6 h): 1 IU/L
TERMINAL_BW (9 h): 194.6 g
APTT (9 h): 16.9 s
Bas (9 h): 0%
Eos (9 h): 1.2%
Fbg (9 h): 296 mg/dL
Hb (9 h): 13.2 g/dL
Ht (9 h): 40.5%
Lym (9 h): 77.4%
MCH (9 h): 21.4 pg
MCHC (9 h): 32.6%
MCV (9 h): 65.5 fL
Mono (9 h): 3.2%
Neu (9 h): 17.2%
PT (9 h): 15.4 s
Plat (9 h): 118 x10_4/uL
RBC (9 h): 618.6 x10_4/ul
Ret (9 h): 9.1%
WBC (9 h): 84.5 x10_2/uL
KIDNEY_L (9 h): 0.9 g
KIDNEY_R (9 h): 0.9 g
KIDNEY_TOTAL (9 h): 1.7 g
LIVER (9 h): 7.7 g
A/G (9 h): 0.9
ALP (9 h): 1280.4 IU/L
ALT (9 h): 38 IU/L
AST (9 h): 70.8 IU/L
BUN (9 h): 9.8 mg/dL
CRE (9 h): 0.2 mg/dL
Ca (9 h): 10.6 mg/dL
Cl (9 h): 107.8 meq/L
DBIL (9 h): 0.002 mg/dL
GLC (9 h): 158.4 mg/dL
IP (9 h): 9.8 mg/dL
K (9 h): 4.1 meq/L
LDH (9 h): 62.2 IU/L
Na (9 h): 143.4 meq/L
PL (9 h): 134 mg/dL
RALB (9 h): 2.5 g/dL
TBIL (9 h): 0.032 mg/dL
TC (9 h): 81.4 mg/dL
TG (9 h): 43.4 mg/dL
TP (9 h): 5.4 g/dL
gamma-GTP (9 h): 1 IU/L
TERMINAL_BW (24 h): 210.7 g
APTT (24 h): 26 s
Bas (24 h): 0%
Eos (24 h): 1%
Fbg (24 h): 290 mg/dL
Hb (24 h): 13 g/dL
Ht (24 h): 40.1%
Lym (24 h): 79.2%
MCH (24 h): 21.4 pg
MCHC (24 h): 32.4%
MCV (24 h): 65.9 fL
Mono (24 h): 3%
Neu (24 h): 15.2%
PT (24 h): 15.6 s
Plat (24 h): 120.5 x10_4/uL
RBC (24 h): 608.2 x10_4/ul
Ret (24 h): 8.4%
WBC (24 h): 96.6 x10_2/uL
KIDNEY_L (24 h): 0.9 g
KIDNEY_R (24 h): 0.9 g
KIDNEY_TOTAL (24 h): 1.9 g
LIVER (24 h): 9.6 g
A/G (24 h): 0.9
ALP (24 h): 1710 IU/L
ALT (24 h): 47.6 IU/L
AST (24 h): 73 IU/L
BUN (24 h): 15 mg/dL
CRE (24 h): 0.2 mg/dL
Ca (24 h): 10.8 mg/dL
Cl (24 h): 105.4 meq/L
DBIL (24 h): 0.01 mg/dL
GLC (24 h): 192.8 mg/dL
IP (24 h): 8.4 mg/dL
K (24 h): 4.1 meq/L
LDH (24 h): 78.4 IU/L
Na (24 h): 142.4 meq/L
PL (24 h): 150.2 mg/dL
RALB (24 h): 2.6 g/dL
TBIL (24 h): 0.034 mg/dL
TC (24 h): 84 mg/dL
TG (24 h): 73.8 mg/dL
TP (24 h): 5.5 g/dL
gamma-GTP (24 h): 1 IU/L
